Experimental findings from PMC5037267, “Crystal Structure of a Group I Energy Coupling Factor Vitamin Transporter S Component in Complex with Its Cognate Substrate” (Cell Chemical Biology, 2016) are described below.

Common to all, as to assay type: binding
Experiment [1] concerns the target T1, YkoE (Bacillus subtilis, UniProt O34738).
T1 construct: isolated S component without YkoC/YkoD; N-terminal His6 tag cut by TEV; E. coli Lemo21; n-decyl-beta-D-maltopyranoside; four N-terminal residues not seen in crystal
T1 sequence (O34738 1-199 limits assumed): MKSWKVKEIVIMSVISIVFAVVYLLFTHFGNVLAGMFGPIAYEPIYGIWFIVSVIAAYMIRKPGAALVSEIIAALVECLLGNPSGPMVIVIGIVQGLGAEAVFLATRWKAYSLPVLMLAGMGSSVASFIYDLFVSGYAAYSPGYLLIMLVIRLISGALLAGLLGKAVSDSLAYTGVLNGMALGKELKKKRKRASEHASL
The experiment in a line: CD thermal melting at […] nm. Particulars: YkoE from M9 medium plus excess thiamine; reference without added thiamine 68 °C; pH 7.1, 200 mM NaCl; 1 °C/min.

Experiment [2] concerns the target T2, YkoE (Bacillus subtilis, UniProt O34738, D131A).
T2 construct: isolated S component without YkoC/YkoD; N-terminal His6 tag cut by TEV; E. coli Lemo21; n-decyl-beta-D-maltopyranoside; four N-terminal residues not seen in crystal
T2 sequence (O34738 1-199 D131A limits assumed): T1 sequence (O34738 1-199 limits assumed) with D131A
The experiment in a line: intrinsic Trp fluorescence quenching titration.

Experiment [3] deals with T3, YkoE (Bacillus subtilis, UniProt O34738, E77A).
T3 construct: isolated S component without YkoC/YkoD; N-terminal His6 tag cut by TEV; E. coli Lemo21; n-decyl-beta-D-maltopyranoside; four N-terminal residues not seen in crystal
T3 sequence (O34738 1-199 E77A limits assumed): T1 sequence (O34738 1-199 limits assumed) with E77A
Nature of the experiment: intrinsic Trp fluorescence quenching titration.

The target of experiment [4] is T4, YkoE (Bacillus subtilis, UniProt O34738, Y46A).
T4 construct: isolated S component without YkoC/YkoD; N-terminal His6 tag cut by TEV; E. coli Lemo21; n-decyl-beta-D-maltopyranoside; four N-terminal residues not seen in crystal
T4 sequence (O34738 1-199 Y46A limits assumed): T1 sequence (O34738 1-199 limits assumed) with Y46A
Nature of the experiment: intrinsic Trp fluorescence quenching titration.

Experiment [5] has as its target T1, YkoE. Nature of the experiment: intrinsic Trp fluorescence quenching titration.
In experiment [6] the target is T5, YkoE (Bacillus subtilis, UniProt O34738, Q95A).
T5 construct: isolated S component without YkoC/YkoD; N-terminal His6 tag cut by TEV; E. coli Lemo21; n-decyl-beta-D-maltopyranoside; four N-terminal residues not seen in crystal
T5 sequence (O34738 1-199 Q95A limits assumed): T1 sequence (O34738 1-199 limits assumed) with Q95A
The experiment in a line: intrinsic Trp fluorescence quenching titration. The text has this: intrinsic Trp fluorescence quenching titration on YkoE | with the Q95A mutation showing the largest effect on affinity

Residue numbers refer to the chain shown, from its start.

As for `Cc1ncc(C[n+]2csc(CCO)c2C)c(N)n1` [thiamine], the Tm at YkoE [1] was 75 °C. The Kd (in general, a measure of binding affinity in units of concentration) is 9.4 ± 0.9 nM at YkoE [2]; 9.3 ± 0.6 nM at YkoE [3]; 10.3 ± 0.8 nM on YkoE [4]; around 4.5 nM at YkoE [5]; 26.9 ± 1.6 nM at YkoE [6].
